# Measured values published in US20040142379A1, “Affinity fishing for ligands and proteins receptors” (Carlsberg Research Laboratory, priority 2003, published 2004).
# “Also recorded” adds a separate entry of the source. Non-standard residues stand in square brackets, D forms with d. No end group written: not given here. Aze = O=C(O)[C@@H]1CCN1
# System: Normal Myocytes (basal) protein mixture
# Assay: Solid phase screening of Library 1 with labeled myocyte proteins; on-bead affinity isolation and peptide mass fingerprinting of bound protein (basal)
# Format: binding, neonatal Wistar rats
# Settings: proteins bound to resin-bound Library 1 ligand, primarily present in basal cells; LA low abundance, M transmembrane or partially embedded, MA membrane associated; parentheses = possible complexes
# Method: Myocytes were prepared from 1 to 5 day old neonatal Wistar rats (University of Copenhagen) according to literature procedure described in Busk et al., 2002, Cardiovasc. Res., 56: 64-75 and plated into eight P10 culture plates at 6 million cells/plate. Cells were grown at 37° C. and 5% CO2 humidity in serum free Modified Eagle Media (MEM). After 2 days, the adherent cells were washed at room temperature with serum free MEM (2×) and fresh MEM was added. To four of the plates, 10 μM phenylephrine (PE) was also added. Cells were grown for two more days and then harvested as described below.
# Protein was extracted from myocytes prepared as described above for Example 9, using a new procedure modified from existing protocols, primarily: Arnott, et al., 1998, Anal. Biochem. 258: 1-18. The media was removed from plates and adhered cells were treated for 10 minutes with ice cold phosphate buffer (0.25 mL, 10 mM, pH 7.5, augmented with 0.15 M NaCl 60 mM Benzamidine HCl, 5 mM EDTA, 10 μg/mL E-64, 10 μg/mL Leupeptin, 10 μg/mL Pepstatin A, and 1 mM PMSF). The cells were scraped off the plates and then lysed (on ice) in a sonicator (2×) using 10 seconds off/10 seconds on cycles.
# The resulting suspension was augmented with CHAPS, DTT, and urea to a final concentration of CHAPS (1% w/v), DTT (5 mM), and urea (8 M). After 10-15 minutes on ice, the solution was centrifuged for 10 minutes at 15,000 rpm at 4° C. The supernatant was removed and protein content quantified using the NanoOrange Protein test (Molecular Probes, Eugene, Oreg.): Total protein recovered: 70.5 μg for PE-treated cells and 60 μg for basal cells.
# Fluorescent dye Oregon Green 514 (OR) (Molecular Probes) was used to label the healthy/basal cells while Rhodamine Red (RR) (Molecular Probes) was used to label the PE-treated cells. The labeling procedures were carried out according to the manufacturer's protocol. The protein solutions (0.25 mL, 50.4 μg for PE cells and 0.25 mL, 42.8 μg for basal cells) were dialyzed against a solution of 10 mM phosphate buffer, 0.15 M NaCl, pH 7.5 and then 1 M NaHCO3 (0.025 mL) added to a final pH of 8.5. 10 μL of dye in dry DMF (10 mg/mL) was added and the sample stirred at room temperature for 2 hours. The protein solution was dialyzed extensively against 10 mM phosphate buffer, 0.15 M NaCl, pH 7.5, to remove excess dye.
# Ligand library 1 (200 mg), prepared as described for Example 5, was transferred to a syringe fitted with a stop-valve and the ligand-beads were washed for 10 minutes (3×) with 10 mM phosphate buffer, pH 6.8, supplemented with 0.15 M NaCl, 1 mM Ca^2+, 1 mM Zn^2+, 1 mM Mn^2+, 1 mM Cu^2+, and 1 mM Mg^2+ (3 mL). The ligand-beads were treated with a 1% BSA solution for 30 minutes, then washed with buffer (1×). A mixture of labeled myocyte proteins, including both PE-induced protein (138 μL, 40 μg) and basal protein (167 μL, 40 μg) obtained as described above for Example 11, was prepared in 1.2 mL buffer, and added to the ligand library in the syringe. The proteins and ligand library were incubated at room temperature for 16 hours. The library was then washed with buffer for 5 minutes then with water for 3×5 minutes. The library was examined under a fluorescence microscope and brightly fluorescent red, green, and yellow beads (yellow indicative of both dyes red and green binding; the majority of the beads) were present, as well as unlabelled beads. The fluorescent beads were parted and retained for analysis.
# The fluorescent ligand library beads containing bound myocyte protein obtained as described in Example 15, were sorted using a COPAS (250) NF Bead Sorter (Union Biometrica, Somerville, Mass.). Beads emitting fluorescence of only one color contain proteins from one physical state, proteins expressed only in the PE-induced hypertrophic state (red) or proteins expressed only in the basal state (green).
row,Substance,Identified Protein(s)
1,F[Aze]GHG[Aze],Hypothetical proteins; Cysteine and tyrosine rich proteins of unknown; also recorded: function (M); (Mitochondrial ATP synthase; Ribosomal proteins (L; also recorded: series);) Serine protease; SPTR
2,Phe-Ppy-Acc-Ala-Ppy-Hpy,Hypothetical proteins; Troponin T; (Phospholipase C (MA);; also recorded: Phosphatidylcholine sterol acyl transferase)

# System: E. coli membrane proteins
# Assay: Solid phase screening of Library 2 with E. coli membrane proteins; on-bead tryptic digest and protein identification
# Format: binding, Escherichia coli DH 5α-136
# Settings: proteins bound to resin-bound Library 2 ligand; LA low abundance, M inner or outer membrane, P periplasmic space
# Method: A 400 mL culture of Escherichia coli DH 5α-136 (Carlsberg Research Center Collection) was prepared according to the procedures described in Hanahan, 1985, In: DNA Cloning, Vol 1, Glover, D., ed., IRL Press Ltd, pp. 109-135. Cells were grown from innocula in LB media at 37° C. for 5 to 6 hours and harvested in the latter log phase at an optical density of 0.8 (600 nm) by centrifugation (10,000 rpm for 10 minutes at 4° C.). The media containing extracellular protein was retained and the pellet washed once with PBS, pH 7.6 (cellular weight=2.22 g).
# Isolation of E. coli membrane proteins was achieved through modification of published literature procedures: Auer, et al., 2001, Biochemistry, 40:6628-6635, and Molloy, et al., 2000, Eur. J. Biochem. 267:2871-2881. After incubation of E. coli cells for 2 days, washed cells were scraped from plates and centrifuged as described above for Example 10. The cell pellet (approximately 1 g) was suspended in 50 mM Tris HCl, pH 7.5 and pressed (2×) in a French Press at 1500 Psi. The resulting suspension was centrifuged at 2500×g for 10 minutes. The ice cold supernatant was diluted with 2.5 ml of ice-cold 0.1 M sodium carbonate buffer 11 and the solution stirred on ice for 1 hour. Ultracentrifugation was then carried out at 115, 000×g for 1 to 1.5 hours at 4° C., yielding Pellet 1 and Supernatant 1. The membrane pellet 1 was resuspended in 50 mM Tris HCl, pH 7.5 and the pellet was recollected after centrifugation for an additional 20 minutes at 115,000×g, yielding Pellet 2 and supernatant 2. Pellet 2 was solubilized in 50 mM Tris HCl, pH 7.5 containing 10 mM imidazole, 0.5 mM PMSF, 20% glycerol, and 1% Dodecyl Maltoside (DDM) or 33 mM Octyl Glucoside (OG) for 30 minutes at 4° C. The suspension was then centrifuged for 10,000 g for 30 minutes. The pellet and supernatant obtained were labeled Pellet 3 and supernatant 3.
# Protein content was determined by checking the absorbance of the protein at 280 nm. The protein concentration in the DDM sample was 0.93 mg/mL, while in the OG sample 0.07 mg/mL protein was obtained.
# The protein was labeled with amino reactive succinylanthranilate dye (blue) DDM (0.49 mg dye) and OG (0.03 mg dye) according to the same protocol used in the extracellular labeling described above for Example 12. The labeling stopping reaction (hydroxylamine hydrochloride addition) was not used in this case, to avoid dilution of the protein. The mixture was dialyzed overnight against 10 mM PBS buffer, pH 6.8 containing 0.01 mM ZnCl2, 0.01 mM CaCl2, 0.01 mM MnCl2, and 0.01 mM MnSO4, against a three time buffer change.
# The ligand library was then washed, and E. coli labeled membrane protein, prepared as described above for Example 13, was added (0.1 ml). The ligand library and protein mixture was incubated overnight at room temperature.
# A typical analysis employed 100-300 laser shots.
# Beads containing 40 different specific ligands that bind E. coli protein, the binding ligands isolated by the process described for Example 16 and identified as described for Example 19, were placed into 40 wells of a Multiwell filter plate (Multiscreen DV plates, Millipore). Control beads containing PEGA4000 resin plus the spacer and linker with no ligand compound were used. The binding of unlabeled E. coli proteins was carried out in duplicate. The ligand beads were washed with Millipore water for 3×5 minutes and then with 10 mM PBS buffer (as described for Example 15) for 3×5 minutes under vacuum. Unlabeled E. coli protein, produced as described for Example 13, (400 μg) was added to each well and incubated at room temperature overnight. The next day, the unbound protein solution from each well was removed under suction and the beads were washed with Millipore water and buffer respectively for 3×5 minutes under vacuum.
# Protein was cleared from beads containing protein-ligand binding “positive hits” isolated as described for Examples 21 (myocyte proteins) and 22 (E. coli proteins). […]
row,Substance,Identified Protein(s)
1,T(Sa)-F-A-L-V,"Chaperone DnaK, putative hydrolase, transposase"
2,T(Sa)-F-G-I-M,"Transposase, transcriptional regulator (LA), GroEL, protein involved in the taurine; also recorded: transport system (M)"
3,T(Sa)-F-G-I-W,"Histidine synthetase, aspartate carbamoyl transferase, protein involved in permease; also recorded: transport system (M)"
4,T(Sa)-F-G-L-M,"Hemolysin C, high affinity potassium transport system (M), quinone oxidoreductase; also recorded: (M), ferrodoxin dependent NA(D)PH oxidoreductase (M)"
5,T(Sa)-F-N-H-S,"Phosphate acetyl transferase, acid shock protein, molybdopterin converting factor; also recorded: subunit"
6,T(Sa)-F-V-W-H,"NADH dehydrogenase (M), protein involved in flagellar biosynthesis and motor; also recorded: switching component (M); also recorded: Lysine-arginine-ornithine-binding protein (P), ATP-binding component of glycine-; also recorded: betaine-proline transport protein (P)"
7,T(Sa)-G-V-F-L,"50 S ribosomal protein, heme binding lipoprotein (M), regulator for D-glucarate, D- and glycerate and D-galactarate, glutamine tRNA synthetase"
8,T(Sa)-H-I-G-Y,"Fimbrial subunit, outer membrane pyruvate kinase (LA, M)"
9,T(Sa)-H-L-G-Y,"Protein involved in lipopolysaccharide biosynthesis (M), phosphomannose isomerase"
10,T(Sa)-H-W-H-I,"Mannose-1-phosphate guanyl transferase, isopropyl malate dehydrogenase (M)"
11,T(Sa)-H-W-H-L,"Chorismate mutase, xanthine dehydrogenase, carbamoyl phosphate synthetase"
12,T(Sa)-H-W-V-V,"Pyruvoyl dependent aspartate decarboxylase, colicin E2, Histidine kinase (M)"
13,T(Sa)-I-Y-L-F,"Membrane bound ATP synthetase (M), ATP hydrolase"
14,T(Sa)-L-S-W-W,"NAD-dependent 7-alpha-hydroxysteriod dehydrogenase, homocysteine transferase,; also recorded: nitrate reductase (P), lactate dehydrogenase, citrate synthetase"
15,T(Sa)-L-Y-I-F,"Colicin, hypothetical membrane protein (M) outer membrane lipoprotein (M),; also recorded: arylsulfatase"
16,T(Sa)-L-Y-L-F,"Fimbrial protein precursor, alkaline phosphatase (P), cytochrome related proteins (P),"
17,T(Sa)-M-V-N-W,"ATP dependent helicase, mob C"
18,T(Sa)-W-V-N-M,"Transposase, inner membrane protein for phage attachment (M)"
19,T(Sa)-Y-S-M-P,"Biotin synthetase, UDP-glucose dehydrogenase, tyrosine protein kinase (LA), fatty; also recorded: acid oxidase complex proteins"

# System: six protein mixture: Con A, P. sativum lectin, L. culinaris lectin, W. floribunda lectin, Glyceraldehyde 6-phosphate, and bovine serum albumin (BSA)
# Assay: not given
# Settings: proteins eluted from ligand on PEGA6000 resin with 0.5 M mannose and/or N-acetylglucosamine
# Method: The ligand-resin was washed with 10 mM PBS buffer, pH 6.8 containing 1 mM CaCl2 and 1 mM MnCl2. A mixture of unlabelled proteins, Glycerol-3-phosphate: BSA: Wisteria floribunda: Lens culinaris: Pisatum sativum in a […] weight ratio was dissolved in 10 mM PBS buffer, pH 6.8 containing 1 mM CaCl2 and 1 mM MnCl2 The protein mix (3.5 mL, ca. 1.2 mg protein) was applied to each ligand column and allowed to bind overnight. The column was washed with the same buffer until no more protein was eluted (Abs 280 nm). Bound protein was eluted from the column using 0.5M mannose in 10 mM PBS buffer, pH 8.0 containing CaCl2 and 1 mM MnCl2 (buffer filtered to remove CaOH2 formed) for glycopeptides containing only mannose, 0.5 M N-acetylglucosamine in 10 […] mM PBS buffer, pH 8.0 containing CaCl2 and 1 mM MnCl2 (buffer filtered to remove CaOH2 formed) for glycopeptides containing only GlcNAc, and both buffers for glycopeptides containing both mannose and GlcNAc, or for unglycosylated peptides. Samples were obtained in about 700 μL volume and frozen for later protein identification.
row,Substance,Identified Protein(s)
1,GPKKYH,"Con A, P. sativum lectin,; also recorded: L. culinaris lectin"
2,GlcNN-Trp-Phe-Asp-Trp-Pro,Con A
3,GlcNN-Val-GlcNN-His-ManS-Gly,"Con A, P. sativum lectin"
4,ManN-ManS-ManN-Trp-Ser-Trp,"Con A, P. sativum lectin,; also recorded: L. culinaris lectin"
5,ManN-Phe-Trp-Ser-Lys-His,"Con A, P. sativum lectin"
6,ManS-GIy-GlcNN-Asn-ManS-Tyr,"Con A, P. sativum lectin,; also recorded: L. culinaris lectin"
7,ManS-Gly-ManS-Asp-Asn-Ala,"Con A, P. sativum lectin"
